Among the data in patent US9168259B2 (GRÜNENTHAL GMBH, priority 2010, dated 2015) are Emax and EC50 values, retold here.

This test addresses T1, KCNQ2/3 channels (Homo sapiens, UniProt O43525+O43526).
T1 construct: expressed in transfected cells
The test is described as follows: Fluorescence assay using a voltage sensitive dye (fluorimetry). The class given is cell-based. Conditions: CHO-K1 cells expressing KCNQ2/3; for Emax: CHO-K1, plateau effect relative to saturated retigabine (50 μM) = 100%, negative values = antagonistic, read-out: Fluorimetry % efficacy (retigabine = 100%); for EC50: IC50 where % efficacy is negative, read-out: Fluorimetry EC50/IC50.

T1 sequence (O43526 whole entry): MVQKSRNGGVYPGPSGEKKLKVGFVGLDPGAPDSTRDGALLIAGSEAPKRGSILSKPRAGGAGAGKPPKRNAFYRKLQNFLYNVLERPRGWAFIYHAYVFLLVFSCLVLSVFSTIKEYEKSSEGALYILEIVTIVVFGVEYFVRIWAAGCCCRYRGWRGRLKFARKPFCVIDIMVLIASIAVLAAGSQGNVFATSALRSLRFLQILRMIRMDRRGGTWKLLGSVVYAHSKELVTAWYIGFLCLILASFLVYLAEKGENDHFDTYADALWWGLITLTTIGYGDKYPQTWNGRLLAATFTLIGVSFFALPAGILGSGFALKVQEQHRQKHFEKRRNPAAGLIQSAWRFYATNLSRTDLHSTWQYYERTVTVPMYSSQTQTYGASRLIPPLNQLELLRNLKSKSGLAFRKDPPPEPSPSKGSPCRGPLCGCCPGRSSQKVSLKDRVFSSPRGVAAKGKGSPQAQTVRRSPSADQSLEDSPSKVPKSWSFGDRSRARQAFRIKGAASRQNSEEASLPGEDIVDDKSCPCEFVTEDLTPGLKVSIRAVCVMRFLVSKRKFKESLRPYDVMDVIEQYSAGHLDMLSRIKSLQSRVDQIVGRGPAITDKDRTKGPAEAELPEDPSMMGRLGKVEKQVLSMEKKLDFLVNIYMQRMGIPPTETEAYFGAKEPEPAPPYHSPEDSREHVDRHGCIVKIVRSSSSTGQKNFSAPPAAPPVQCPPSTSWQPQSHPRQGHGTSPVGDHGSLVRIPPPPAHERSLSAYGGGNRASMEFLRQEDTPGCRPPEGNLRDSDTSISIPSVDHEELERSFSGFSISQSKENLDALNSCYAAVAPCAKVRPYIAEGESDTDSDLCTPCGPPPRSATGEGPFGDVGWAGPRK
T1 sequence (O43525 whole entry): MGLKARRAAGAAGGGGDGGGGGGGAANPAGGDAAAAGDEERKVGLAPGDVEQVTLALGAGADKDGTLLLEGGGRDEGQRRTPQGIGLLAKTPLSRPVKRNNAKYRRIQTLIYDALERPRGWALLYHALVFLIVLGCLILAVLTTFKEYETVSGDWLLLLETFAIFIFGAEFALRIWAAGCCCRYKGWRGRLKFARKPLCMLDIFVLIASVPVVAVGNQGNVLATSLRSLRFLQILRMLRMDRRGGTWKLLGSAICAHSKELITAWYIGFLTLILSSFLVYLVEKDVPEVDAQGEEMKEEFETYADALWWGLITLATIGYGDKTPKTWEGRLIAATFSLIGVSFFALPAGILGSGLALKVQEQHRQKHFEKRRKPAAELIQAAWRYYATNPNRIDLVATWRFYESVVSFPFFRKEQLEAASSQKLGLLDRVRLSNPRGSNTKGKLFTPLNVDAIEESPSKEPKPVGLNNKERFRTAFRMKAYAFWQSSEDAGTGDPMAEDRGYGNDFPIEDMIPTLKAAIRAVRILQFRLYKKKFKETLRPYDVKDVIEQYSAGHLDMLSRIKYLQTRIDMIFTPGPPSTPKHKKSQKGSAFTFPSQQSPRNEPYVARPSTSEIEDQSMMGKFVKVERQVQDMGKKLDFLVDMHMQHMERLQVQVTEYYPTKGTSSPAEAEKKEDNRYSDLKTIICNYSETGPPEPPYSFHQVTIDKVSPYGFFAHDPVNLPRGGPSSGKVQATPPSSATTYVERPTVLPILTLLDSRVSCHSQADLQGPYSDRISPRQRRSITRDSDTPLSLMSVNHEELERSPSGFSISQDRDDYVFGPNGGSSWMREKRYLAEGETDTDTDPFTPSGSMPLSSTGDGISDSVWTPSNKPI

As to `CCSc1nc(N2CCS(=O)(=O)CC2)cc(C)c1C(=O)NCc1cccc(F)c1` [Example 298, 6-(1,1-Dioxo-[1,4]thiazinan-4-yl)-2-ethylsulfanyl-N-[(3-fluorophenyl)-methyl]-4-methyl-pyridine-3-carboxylic acid amide], the Emax was 127% and the EC50 was found to be 4590 nM.

`CCSc1nc(N2CCOCC2)c(F)c(C)c1C(=O)NCc1cccc(F)c1` [Example 58, 2-Ethylsulfanyl-5-fluoro-N-[(3-fluorophenyl)-methyl]-4-methyl-6-morpholin-4-yl-pyridine-3-carboxylic acid amide]: the Emax came out at 173% and the EC50 turned out to be 2290 nM.

Turning to `CCOc1nc(N2CCCOCC2)cc(C)c1C(=O)NCc1cccc(F)c1` [Example 99, 2-Ethoxy-N-[(3-fluorophenyl)-methyl]-4-methyl-6-([1,4]oxazepan-4-yl)-pyridine-3-carboxylic acid amide], the Emax worked out at 134% and the EC50 is 899 nM.

Regarding `CCSc1nc(N2CCOC[C@H]2C)cc(C)c1C(=O)NCc1ccc(F)c(F)c1` [Example 225, N-[(3,4-Difluoro-phenyl)-methyl]-2-ethylsulfanyl-4-methyl-6-[(3R)-3-methyl-morpholin-4-yl]-pyridine-3-carboxylic acid amide], the Emax came out at 173% and the EC50 stood at 71 nM.

As for `Cc1cc(N2CCOCC2)nc(OC2COC2)c1C(=O)NCc1cccc(F)c1` [Example 317, N-[(3-Fluorophenyl)-methyl]-4-methyl-6-morpholin-4-yl-2-(oxetan-3-yloxy)-pyridine-3-carboxylic acid amide], the Emax was 116% and the EC50 is 1120 nM.

Turning to `CCSc1nc(N2CC(COC)C2)cc(C)c1C(=O)NCc1cccc(F)c1` [Example 239, 2-Ethylsulfanyl-N-[(3-fluorophenyl)-methyl]-6-[3-(methoxymethyl)-azetidin-1-yl]-4-methyl-pyridine-3-carboxylic acid amide], the Emax was 125% and the EC50 worked out at 1820 nM.

Regarding `COCCOc1nc(N2CCOCC2)cc(C)c1C(=O)NCc1cccc(F)c1` [Example 21, N-[(3-Fluorophenyl)-methyl]-2-(2-methoxy-ethoxy)-4-methyl-6-morpholin-4-yl-pyridine-3-carboxylic acid amide], the Emax was 146% and the EC50 was 1220 nM.

`CCSc1nc(N(CCOC)CCOC)cc(C)c1C(=O)NCc1cccc(F)c1` [Example 126, 6-[Bis(2-methoxy-ethyl)-amino]-2-ethylsulfanyl-N-[(3-fluorophenyl)-methyl]-4-methyl-pyridine-3-carboxylic acid amide]: the Emax turned out to be 145% and the EC50 is 2090 nM.

With `COc1nc(N2CCOC[C@H]2C)cc(C)c1C(=O)NCc1ccc(Cl)cc1` [Example 215, N-[(4-Chlorophenyl)-methyl]-2-methoxy-4-methyl-6-[(3R)-3-methyl-morpholin-4-yl]-pyridine-3-carboxylic acid amide], the Emax is 191% and the EC50 worked out at 147 nM.

As for `CCSc1nc(N2CCc3ccccc3C2)cc(C)c1C(=O)NCc1cccc(F)c1` [Example 26, 2-Ethylsulfanyl-N-[(3-fluorophenyl)-methyl]-4-methyl-6-(1,2,3,4-tetrahydro-isoquinolin-2-yl)-pyridine-3-carboxylic acid amide], the Emax was 155% and the EC50 was 132 nM.

Take `Cc1cc(N2CCOCC2)nc(C2CC2)c1C(=O)NCCCC(F)(F)F` [Example 329, 2-Cyclopropyl-4-methyl-6-morpholin-4-yl-N-(4,4,4-trifluoro-butyl)-pyridine-3-carboxylic acid amide]: the Emax was 170% and the EC50 turned out to be 763 nM.

As for `COc1nc(N2CCOCC2)cc(C)c1C(=O)NCCCC(C)(C)C` [Example 86, N-(4,4-Dimethyl-pentyl)-2-methoxy-4-methyl-6-morpholin-4-yl-pyridine-3-carboxylic acid amide], the Emax was found to be 236% and the EC50 amounted to 172 nM.

Regarding `CCSc1nc(N2CCOCC2)cc(C)c1C(=O)NCCC(O)c1ccccc1` (centres unmarked) [Example 227, 2-Ethylsulfanyl-N-(3-hydroxy-3-phenyl-propyl)-4-methyl-6-morpholin-4-yl-pyridine-3-carboxylic acid amide], the Emax is 165% and the EC50 stood at 4190 nM.

As to `CCOc1nc(N2CCOCC2)cc(C)c1C(=O)NCc1ccc(Cl)cc1` [Example 166, N-[(4-Chlorophenyl)-methyl]-2-ethoxy-4-methyl-6-morpholin-4-yl-pyridine-3-carboxylic acid amide], the Emax was determined as 134% and the EC50 turned out to be 117 nM.

On to `CCSc1nc(N(C)CCCOC)cc(C)c1C(=O)NCCCC(C)(C)C` [Example 212, N-(4,4-Dimethyl-pentyl)-2-ethylsulfanyl-6-(3-methoxy-propyl-methyl-amino)-4-methyl-pyridine-3-carboxylic acid amide], for which the Emax was found to be 200% and the EC50 stood at 152 nM.

For `CCSc1nc(N2CCOCC2)cc(C)c1C(=O)NCc1ccc(OC(F)(F)F)cc1` [Example 97, 2-Ethylsulfanyl-4-methyl-6-morpholin-4-yl-N-[[4-(trifluoromethyloxy)-phenyl]methyl]-pyridine-3-carboxylic acid amide], the Emax worked out at 136% and the EC50 came out at 67 nM.

On to `CCSc1nc(N2CCOCC2)cc(C)c1C(=O)NCCCC(C)(F)F` [Example 308, N-(4,4-Difluoro-pentyl)-2-ethylsulfanyl-4-methyl-6-morpholin-4-yl-pyridine-3-carboxylic acid amide], for which the Emax amounted to 249% and the EC50 was 397 nM.

Consider `CCSc1nc(N2CCOCC2)cc(C)c1C(=O)NCCCc1cccc(F)c1` [Example 113, 2-Ethylsulfanyl-N-[3-(3-fluorophenyl)-propyl]-4-methyl-6-morpholin-4-yl-pyridine-3-carboxylic acid amide], for which the Emax came to 192% and the EC50 came out at 212 nM.

For `CCSc1nc(N2CCOCC2)cc(C)c1C(=O)NCCC1CCCCC1` [Example 106, N-(2-Cyclohexyl-ethyl)-2-ethylsulfanyl-4-methyl-6-morpholin-4-yl-pyridine-3-carboxylic acid amide], the Emax came out at 160% and the EC50 worked out at 172 nM.

In the case of `CCSc1nc(N(C)C2CCCOC2)cc(C)c1C(=O)NCCCC(C)(C)C` (centres unmarked) [Example 280, N-(4,4-Dimethyl-pentyl)-2-ethylsulfanyl-4-methyl-6-(methyl-tetrahydro-pyran-3-yl-amino)-pyridine-3-carboxylic acid amide], the Emax came to 165% and the EC50 was 302 nM.

For the compound `CCCc1nc(N2CCOCC2)cc(C)c1C(=O)NCc1ccc(F)c(F)c1` [Example 321, N-[(3,4-Difluoro-phenyl)-methyl]-4-methyl-6-morpholin-4-yl-2-propyl-pyridine-3-carboxylic acid amide], the Emax was 162% and the EC50 came out at 83 nM.

Take `CCSc1nc(N2CCOCC2)cc(COC)c1C(=O)NCc1cccc(F)c1` [Example 346, 2-Ethylsulfanyl-N-[(3-fluorophenyl)-methyl]-4-(methoxymethyl)-6-morpholin-4-yl-pyridine-3-carboxylic acid amide]: the Emax came to 157% and the EC50 was determined as 729 nM.
